“Also recorded” adds a separate entry of the source.
How the values were obtained:
Assay type in all cases: cell-based, rat
[1] = system: TH positive cells in primary ventral mesencephalic cultures; assay: Survival of TH positive cells in primary ventral mesencephalic cultures without MPP+ treatment; conditions: 24 hrs incubation, no toxin; listed as OPN
Description: (§1) Primary ventral mesencephalic cell cultures: Primary cell cultures were prepared by dissecting out the ventral mesencephalon from E14 rat foetuses. The dissected tissue was pooled and incubated with 0.1% Trypsin solution. This solution was then removed and replaced with Dulbecco's modified Eagles medium (DMEM) containing 10% foetal bovine serum (FBS) and 0.25% penicillin-streptomycin-neomycin (PSN), and the tissue centrifuged for 1 minute at 2000 rpm at room temperature. The supernatant was then removed, fresh medium was added and the tissue mechanically dissociated using increasing fine bore fire-polished Pasteur pipettes. Cell density was assessed using a haematocytometer and cells were plated in culture medium containing 10% FBS and 0.25% PSN at a density of 1-1.5×10^5 on sterile coverslips coated with 0.01% poly-D-lysine. After 4 days the culture medium was removed and replaced with fresh serum free DMEM prior to treatment with MPP+ or OPN. […]
(§2) Tyrosine hydroxylase (TH) immunohistochemistry: The culture medium was removed from the cells and the coverslips were fixed in 4% paraformaldehyde prior to peroxidase detection of TH using the ABC immunohistochemical method. Coverslips were mounted and examined using a Zeiss Axiophot microscope at a 50× magnification and the number of TH positive cells on each coverslip was manually counted in four fields chosen at random (total area: 8 mm^2).

[2] = system: TH positive cells in primary ventral mesencephalic cultures; assay: Survival of TH positive cells in primary ventral mesencephalic cultures with MPP+ treatment; conditions: for concentration of maximal efficacy in increasing TH positive cell survival: lowest concentration used; for effect on survival/death of TH positive cells: 24 hrs pretreatment
Description: Primary ventral mesencephalic cell cultures: Primary cell cultures were prepared by dissecting out the ventral mesencephalon from E14 rat foetuses. The dissected tissue was pooled and incubated with 0.1% Trypsin solution. This solution was then removed and replaced with Dulbecco's modified Eagles medium (DMEM) containing 10% foetal bovine serum (FBS) and 0.25% penicillin-streptomycin-neomycin (PSN), and the tissue centrifuged for 1 minute at 2000 rpm at room temperature. The supernatant was then removed, fresh medium was added and the tissue mechanically dissociated using increasing fine bore fire-polished Pasteur pipettes. Cell density was assessed using a haematocytometer and cells were plated in culture medium containing 10% FBS and 0.25% PSN at a density of 1-1.5×10^5 on sterile coverslips coated with 0.01% poly-D-lysine. After 4 days the culture medium was removed and replaced with fresh serum free DMEM prior to treatment with MPP+ or OPN. Each treatment was done in triplicate per experiment and each series of experiments was repeated a further 2 times to give a final n=3.
Manipulation of the OPN system: Cultures were incubated with one of the following treatments for 24 hrs prior to MPP+ administration (either 10 μM or 2 μM MPP+): OPN protein (1, 5, 10, 25, 50 & 100 ng/ml), anti-OPN antibody (26.5, 53, 265, 530 ng/ml and 1.325, 2.65 μg/ml), anti-αv or anti-β3 integrin receptor subunit antibody (0.02, 0.04, 0.2, 0.4, 1 & 2 μg/ml). Control groups received no MPP+ treatment.
as §2

[3] = system: TH positive cells in primary ventral mesencephalic cell cultures; assay: MPP+ dose response on TH positive cell number in primary ventral mesencephalic cell cultures; conditions: 24 hrs exposure, 0.1-10 μM MPP+, n=3; read-out: EC50, TH positive (dopaminergic) cell death
Description: as §1
MPP+ dose response: MPP+ was dissolved in sterile PBS and the primary cell cultures were incubated for 24 hrs with one of the following concentrations of MPP+ : 0.1, 0.5, 1, 2, 5, 10 μM MPP+ or vehicle (PBS). […] An EC50 was calculated (3.076±0.56) and a high (10 μM) or low (2 μM) MPP+ concentration was used to investigate the role of OPN in dopaminergic cell survival. […]

| Compound | effect on viability of TH positive cells [1] | concentration of maximal efficacy in increasing TH positive cell survival ([2]; 2 μM MPP+) [ng/mL] | concentration of maximal efficacy in increasing TH positive cell survival ([2]; 10 μM MPP+) [ng/mL] | effect on survival/death of TH positive cells ([2]; then 2 μM MPP+ for 24 hrs) | effect on survival/death of TH positive cells ([2]; then 2 μM MPP+ for 24 hrs, listed as OPN) | effect on survival/death of TH positive cells ([2]; then 10 μM MPP+ for 24 hrs) | effect on survival/death of TH positive cells ([2]; then 10 μM MPP+ for 24 hrs, listed as OPN) | EC50 [3] [µM] |
| --- | --- | --- | --- | --- | --- | --- | --- | --- |
| OPN protein fragment: 15 amino acid fragment of rat osteopontin (SEQ ID NO: 8) containing the RGD αvβ3 integrin binding site (TVDVPDGRGDSLAYG; listed as Rattus norvegicus) | not found to affect the viability; also recorded: no effect | 1 | 1 | almost completely protected dopaminergic cells | increased TH cell survival | almost completely protected dopaminergic cells | increased survival of TH positive cells |  |
| C[n+]1ccc(-c2ccccc2)cc1 [MPP+] |  |  |  |  |  |  |  | 3.08 ± 0.56 |
